# Entries after “also recorded” stand apart in the source; their conditions may differ. Where a SMILES comes first, the peptide text is derived from it. The star is where a group is joined. Cbz = O=C(OCc1ccccc1)*
# Experiments:
# PERK = PERK autophosphorylation in J558 cells; type: cell-based
# IRE1α = IRE1α phosphorylation in NIH3T3 cells (Western blot); type: cell-based
# Description: (A) XBP-1 mRNA levels in ER stressed J558 cells treated with Tm for 4 hrs in the absence or presence of MG-132. Cells were pretreated with MG-132 for 1 hr before adding Tm. XBP-1 mRNA levels were determined by Northern blot analysis. […] (C) Effect of a panel of PIs on XBP-1 splicing. Cells were treated with Tm for 4 hrs in the absence or presence of MG-132 (10 μM), PS-341 (10 μM), Lactacystin (10 μM), ZL3VS (50 μM) or AdaAhxL3VS (50 μM), and XBP-1 mRNA splicing measured by RT-PCR analysis. (D) IRE-1α phosphorylation in NIH3T3 cells were treated with Tm as indicated after 2 hrs of pretreatment with MG-132 (10 μM).
# Cells were lysed in RIPA buffer (50 mM Tris pH 7.4, 150 mM NaCl, 1 mM EDTA, 1% Triton X-100, 1% sodium deoxycholate, 0.1% SDS) and lysates subjected to SDS-PAGE and transferred to Hybond P membrane (Amersham-Pharmacia, Piscataway, N.J.). […] HeLa cells were cotransfected with XBP-1u and His-tagged ubiquitin expression plasmids (pMT 107, D. Bohmann, EMBL, Germany) by using the Lipofectamine-2000 reagent (Invitrogen, Carlsbad, Calif.). […] Degradation rates of XBP-1u and XBP-1s proteins were determined by pulse labeling J558 cells with ^35S Met/Cys for 1 hr and chasing for the indicated times.
# UPR target genes = assay: UPR gene and XBP-1 protein expression in MEF cells (gene array, Northern, Western blot); type: cell-based, mouse; details: for induction of ERdj4 (XBP-1-dependent UPR target gene): XBP-1-deficient MEFs; for XBP-1u and XBP-1s protein induction: wt MEFs, 10 μM MG-132 or 10 μg/ml Tm, 6 hours
# Description: (A) XBP-1 locus in wild type and XBP-1^−/− MEF cells. Splicing of the mutant XBP-1 mRNA in XBP-1^−/− cells is shown. * represent termination codons. (B) Wild type and XBP-1^−/− MEF cells were untreated or treated with 10 μg/ml Tm for 6 hours. […] (C) Wild type and XBP-1^−/− MEF cells were treated with 10 μM MG-132 or 10 μg/ml Tm for 6 hours. XBP-1u and XBP-1s proteins were detected by Western blot analysis with anti-XBP-1 antibody.
# 293T and MEF cells derived from wild type and XBP-1^−/− embryos were cultured in DMEM supplemented with 10% fetal calf serum (Hyclone Laboratories). MEF-tet-off cells (Clontech) were maintained in the same media with the addition of 100 μg/ml G418 and 1 μg/ml doxycycline. XBP-1s inducible cells were obtained by transfecting MEF-tet-off cells with the TREhyg-XBP-1s plasmid and then selecting in the presence of 400 μg/ml hygromycin B. Several clones were tested for doxycycline-dependent XBP-1s expression, and one was selected for further experiments. MEF-dn-XBP cells were generated by transfecting MEF-tet-off cells with the TREhyg-dn-XBP plasmid. […] ATF6α and β knockdown MEF cells were generated by cotransfecting wild type MEF cells with U6-iATF6α and β and cmv-puromycin or transducing cells with retroviruses containing each RNAi vector.
# Total RNA was isolated from MEF cells with TRIZOL reagent (Invitrogen, Carlsbad, Calif.). cDNA synthesis, hybridization and laser scanning of the array were carried out at the Gene Array Technology Center (Brigham and Women's Hospital, Boston, Mass.) with MG-U74A GeneChips which had 6,000 functionally characterized sequences and 6,000 ESTs from the UniGene database (Affymetrix, Santa Clara, Calif.) as recommended by Affymetrix. Data analysis was performed using Affymetrix GeneChip 3.1 software under default parameter setting.
# Total RNA was prepared by using Trizol reagent, electrophoresed on 1.2% agarose, 6% formaldehyde gels and then transferred onto Genescreen Plus membrane (NEN). ^32P-radiolabeled probes were prepared with the RediPrime II labeling system (Amersham-Pharmacia). Template DNAs for the probes were cut out by using appropriate restriction enzymes from the cDNA-containing plasmid (XBP-1, 15-830 of the murine coding region) or EST clones from ATCC (CHOP, IMAGE:5863055; ERdj4, IMAGE: 1920927; p58^IPK probe A, IMAGE:9001935; p58^IPK probe B, IMAGE:2646147; ATF6α, IMAGE:4503659; MGP, IMAGE:4990627; EDEM, IMAGE:5324660; PDI-P5, IMAGE:2645183; RAMP4, IMAGE:3489738). Grp94 and Grp78 probes were kindly provided by R. J. Kaufman, Univ. of Michigan and the HEDJ probe the kind gift of L. Hendershot, St. Jude Children's Research Hospital, Memphis. Probe hybridization was performed with Ultrahyb buffer as recommended by the manufacturer (Ambion).
# 48 hours after transfection, 293T cells were washed twice with cold PBS and lysed in 1 ml lysis buffer (10 mM Tris pH7.4, 150 mM NaCl, 1% Triton X-100, 1 mM EDTA) containing a protease inhibitor cocktail tablet (Roche). Lysates were precleared by using protein A-agarose beads (Roche) for 1 hour and incubated with agarose conjugated anti-HA antibody (Santa Cruz) for overnight. The agarose beads were washed five times with the lysis buffer and resuspended in SDS-PAGE sample buffer. MEF cells were lysed in RIPA buffer (50 mM Tris pH 7.4, 150 mM NaCl, 1 mM EDTA, 1% Triton X-100, 1% sodium deoxycholate, 0.1% SDS). Lysates and immunoprecipitates were subjected to SDS-PAGE and transferred to Hybond P membrane (Amersham-Pharmacia).
molecule,measurement,setting,value
CC(C)C[C@@H](C=O)NC(=O)[C@H](CC(C)C)NC(=O)[C@H](CC(C)C)NC(=O)OCc1ccccc1 [MG-132] (Cbz-Leu-Leu-Leu-aldehyde),effect on Tm-induced autophosphorylation of PERK,PERK,a decrease in the autophosphorylation of PERK; also recorded: very marked decrease in the autophosphorylation of PERK
same,effect on Tm-induced IRE1α phosphorylation,IRE1α; 2 hrs pretreatment with MG-132 10 μM,completely blocked the phosphorylation of IRE1α by Tm
same,induction of ERdj4 (XBP-1-dependent UPR target gene),UPR target genes,normal induction of ERdj4
same,XBP-1u and XBP-1s protein induction,UPR target genes,induced both XBP-1u and XBP-1s proteins
tunicamycin [Tm],amount of phosphorylated PERK,PERK,led to an increase in the amount of phosphorylated PERK
same,IRE1α phosphorylation,IRE1α; Tm-treated vs untreated cells,increase in the phosphorylated (slower mobility) and decrease in unphosphorylated IRE1α species
same,induction of ERdj4 (XBP-1-dependent UPR target gene),UPR target genes,not induced at all
same,"genes whose expression increased, of the total pool of 12,000 genes","UPR target genes; wt MEF cells, Tm 6 hours",2.8%
same,XBP-1u and XBP-1s protein induction,UPR target genes,induced both XBP-1u and XBP-1s proteins
